The values that follow are results of earlier work, collected in PubChem BioAssay AID1259409 (Chemical Carcinogenesis Research Information System (CCRIS), 2018).

This data set has as its system rodent chemically induced tumor inhibition, incidence and multiplicity. The data set is described as follows: CCRIS tumor inhibitor studies.

Structures are written as SMILES.

On to `C=C1/C(=C\C=C2/CCC[C@]3(C)[C@@H]([C@H](C)CC[C@@H](CC)C(C)C)CC[C@@H]23)C[C@@H](O)C[C@@H]1O`, for which the “tumour outcome (control, treated, inhibition, significance)” value was 85%, 50%, 41%, p<0.05 (Carcinogen: 7,12-DIMETHYLBENZ[A]ANTHRACENE (57-97-6), Dose [Inhibitor]: 40 MG/KG DIET 1 WK AFTER CARCINOGEN TO END, Route [Inhibitor]: DIET, Species: RAT, Strain/Sex: SPRAGUE-DAWLEY/FEMALE, Target Tissue: Type of Lesion: MAMMARY GLAND: TUMOR, Dose [Carcinogen]: 15 MG AT 50 D OF AGE, ONCE); 85%, 70%, 18%, not significant (Carcinogen: 7,12-DIMETHYLBENZ[A]ANTHRACENE (57-97-6), Dose [Inhibitor]: 40 MG/KG DIET 2 WKS BEFORE CARCINOGEN AND 1 WK AFTER CARCINOGEN, Route [Inhibitor]: DIET, Species: RAT, Strain/Sex: SPRAGUE-DAWLEY/FEMALE, Target Tissue: Type of Lesion: MAMMARY GLAND: TUMOR, Dose [Carcinogen]: 15 MG AT 50 D OF AGE, ONCE); 85%, 50%, 41%, not calculated (Carcinogen: 7,12-DIMETHYLBENZ[A]ANTHRACENE (57-97-6), Dose [Inhibitor]: 40 MG/KG DIET 2 WKS BEFORE CARCINOGEN TO END, Route [Inhibitor]: DIET, Species: RAT, Strain/Sex: SPRAGUE-DAWLEY/FEMALE, Target Tissue: Type of Lesion: MAMMARY GLAND: TUMOR, Dose [Carcinogen]: 15 MG AT 50 D OF AGE, ONCE); 12/15 (80%), 8/15 (53%), 33%, not significant (Carcinogen: N-METHYL-N-NITROSOUREA, 684-93-5, Dose [Inhibitor]: 0, 25 UG/KG DIET AT 65 D OF AGE FOR THE DURATION OF THE STUDY (STUDY DURATION: 120 D), Route [Inhibitor]: ORAL, Species: RAT, Strain/Sex: SPRAGUE-DAWLEY, Target Tissue: Type of Lesion: MAMMARY GLAND: TUMOR, Dose [Carcinogen]: 50 MG/KG BW ONCE AT 80 D OF AGE, Promoter: NONE); 12/15 (80%), 7/15 (47%), 41%, p=0.03 (Carcinogen: N-METHYL-N-NITROSOUREA, 684-93-5, Dose [Inhibitor]: 0, 50 UG/KG DIET AT 65 D OF AGE FOR THE DURATION OF THE STUDY (STUDY DURATION: 120 D), Route [Inhibitor]: ORAL, Species: RAT, Strain/Sex: SPRAGUE-DAWLEY, Target Tissue: Type of Lesion: MAMMARY GLAND: TUMOR, Dose [Carcinogen]: 50 MG/KG BW ONCE AT 80 D OF AGE, Promoter: NONE). Further, the outcome is, setting by setting: (Carcinogen: AZOXYMETHANE (25843-45-2), Dose [Inhibitor]: 25 UG/KG DIET 2 WKS AFTER CARCINOGEN TO END (STUDY DURATION: 10 WKS), Route [Inhibitor]: DIET, Species: MOUSE, Strain/Sex: CF-1, Target Tissue: Type of Lesion: COLON: TOTAL ABERRANT CRYPT FOCI (SURROGATE FOR COLON TUMOR), Dose [Carcinogen]: 10 MG/KG BW WEEKLY FOR 2 WKS (STUDY DURATION: 10 WKS)) 9.6, 2.0, 79%, not calculated; (Carcinogen: AZOXYMETHANE (25843-45-2), Dose [Inhibitor]: 25 UG/KG DIET 2 WKS BEFORE CARCINOGEN TO 2 WKS AFTER (STUDY DURATION: 10 WKS), Route [Inhibitor]: DIET, Species: MOUSE, Strain/Sex: CF-1, Target Tissue: Type of Lesion: COLON: TOTAL ABERRANT CRYPT FOCI (SURROGATE FOR COLON TUMOR), Dose [Carcinogen]: 10 MG/KG BW WEEKLY FOR 2 WKS (STUDY DURATION: 10 WKS)) 9.6, 2.8, 71%, not calculated; (Carcinogen: AZOXYMETHANE (25843-45-2), Dose [Inhibitor]: 25 UG/KG DIET 2 WKS BEFORE CARCINOGEN TO END (STUDY DURATION: 10 WKS), Route [Inhibitor]: DIET, Species: MOUSE, Strain/Sex: CF-1, Target Tissue: Type of Lesion: COLON: TOTAL ABERRANT CRYPT FOCI (SURROGATE FOR COLON TUMOR), Dose [Carcinogen]: 10 MG/KG BW WEEKLY FOR 2 WKS (STUDY DURATION: 10 WKS)) 9.6, 1.8, 81%, not calculated; (Carcinogen: AZOXYMETHANE (25843-45-2), Dose [Inhibitor]: 25 UG/KG DIET 7 D BEFORE CARCINOGEN TO END OF STUDY, Route [Inhibitor]: DIET, Species: MOUSE, Strain/Sex: CF-1, Target Tissue: Type of Lesion: COLON: ABERRANT CRYPT FOCI (SURROGATE FOR COLON TUMOR), Dose [Carcinogen]: 10 MG/KG BW WEEKLY FOR 2 WKS) 29%, 1.4, 95%, p<0.001; (Carcinogen: N-METHYL-N-NITROSOUREA ( 684-93-5), Dose [Inhibitor]: 0, 25, 50 UG/KG DIET 2 WKS BEFORE CARCINOGEN CONTINUING FOR 120 D (STUDY DURATION: 120 D), Dose [Inhibitor]: 0, 25, 50 UG/KG DIET 2 WKS BEFORE CARCINOGEN CONTINUING FOR 120 D (STUDY DURATION: 120 D), Route [Inhibitor]: DIET, Species: RAT, Strain/Sex: SPRAGUE-DAWLEY/FEMALE, Target Tissue: Type of Lesion: MAMMARY GLAND: TUMOR, Dose [Carcinogen]: 50 MG/KG BW ONCE) 80%, 53%, 34%, not calculated; 47%, 41%, not calculated.
For the compound `CCCCCCCCCC`, the “tumour outcome (control, treated, inhibition, significance)” value runs as follows: (Carcinogen: BENZO[A]PYRENE, 50-32-8, Dose [Inhibitor]: 25 MG IN 0.1 ML ACETONE 3/WK ADMINISTERED SIMULTANEOUSLY WITH CARCINOGEN FOR DU RATION OF STUDY (STUDY DURATION: 440 D), Route [Inhibitor]: DERMAL, Species: MOUSE, Strain/Sex: ICR/FEMALE, Target Tissue: Type of Lesion: SKIN: SQUAMOUS CARCINOMA, Dose [Carcinogen]: 5 UG IN 0.1 ML ACETONE 3/WK FOR DURATION OF STUDY, Promoter: NONE USED) 12/50 (24%), 34/50 (68%), -183%, not calculated; (Carcinogen: BENZO[A]PYRENE, 50-32-8, Dose [Inhibitor]: 25 MG IN 0.1 ML ACETONE 3/WK ADMINISTERED SIMULTANEOUSLY WITH CARCINOGEN FOR DURATION OF STUDY (STUDY DURATION: 440 D), Route [Inhibitor]: DERMAL, Species: MOUSE, Strain/Sex: ICR/FEMALE, Target Tissue: Type of Lesion: SKIN: PAPILLOMA, Dose [Carcinogen]: 5 UG IN 0.1 ML ACETONE 3/WK FOR DURATION OF STUDY, Promoter: NONE USED) 16/50 (32%), 38/50 (76%), -138%, not calculated.
`[Mo].[Na+].[Na+].[O-2].[O-2].[O-2].[O-2]`: the “tumour outcome (control, treated, inhibition, significance)” value is 30/41 (73%), 20/45 (44%), 40%, p<0.01 (Carcinogen: N-METHYL-N-BENZYLNITROSAMINE, 937-40-6, Dose [Inhibitor]: 0.32 (BASAL MOLYBDENUM LEVEL), 2 PPM (HIGH MOLYBDENUM LEVEL) IN DIET BEGINNING 4 WK PRIOR TO CARCINOGEN DOSE AND CONTINU, Route [Inhibitor]: ORAL, Species: RAT, Strain/Sex: F344/MALE, Target Tissue: Type of Lesion: ESOPHAGUS: CARCINOMA, Dose [Carcinogen]: 2.5 MG/KG IN 0.2 ML OLIVE OIL 1/WK FOR 20 WK, Promoter: NONE USED) and 6/20 (30%), 1/14 (7%), 77%, p>0.05 (Carcinogen: N-METHYL-N-NITROSOUREA, 684-93-5, Dose [Inhibitor]: 20 PPM IN DRINKING WATER CONCURRENTLY WITH THE CARCINOGEN (STUDY DURATION: 56 WK), Route [Inhibitor]: ORAL, Species: RAT, Strain/Sex: BD6/MALE, Target Tissue: Type of Lesion: INTESTINE: ADENOCARCINOMA, Dose [Carcinogen]: 25 MG/KG 2/WK FOR 15 WK, Promoter: NONE USED).
